Assay results: patent US20240217963A1, “RECEPTOR-INTERACTING PROTEIN 1 INHIBITORS, PREPARATIONS, AND USES THEREOF” (SIRONAX LTD., priority 2021, published 2024)

target: T1, RIP1 (Homo sapiens, UniProt Q13546); assay: Cellular RIP1 inhibitory activity: HT-29 necroptosis (TNFα/SMAC mimetic/zVAD-FMK) CellTiter-Glo viability assay; type: cell-based; details: HT-29 cells, TNF-α 10 ng/ml + SMAC mimetic 6 μM + zVAD-FMK 10 μM, 20 hours, geometric mean, read-out: EC50 Values of in vitro Cellular RIP1 Inhibitory Activity
T1 sequence (Q13546 1-671): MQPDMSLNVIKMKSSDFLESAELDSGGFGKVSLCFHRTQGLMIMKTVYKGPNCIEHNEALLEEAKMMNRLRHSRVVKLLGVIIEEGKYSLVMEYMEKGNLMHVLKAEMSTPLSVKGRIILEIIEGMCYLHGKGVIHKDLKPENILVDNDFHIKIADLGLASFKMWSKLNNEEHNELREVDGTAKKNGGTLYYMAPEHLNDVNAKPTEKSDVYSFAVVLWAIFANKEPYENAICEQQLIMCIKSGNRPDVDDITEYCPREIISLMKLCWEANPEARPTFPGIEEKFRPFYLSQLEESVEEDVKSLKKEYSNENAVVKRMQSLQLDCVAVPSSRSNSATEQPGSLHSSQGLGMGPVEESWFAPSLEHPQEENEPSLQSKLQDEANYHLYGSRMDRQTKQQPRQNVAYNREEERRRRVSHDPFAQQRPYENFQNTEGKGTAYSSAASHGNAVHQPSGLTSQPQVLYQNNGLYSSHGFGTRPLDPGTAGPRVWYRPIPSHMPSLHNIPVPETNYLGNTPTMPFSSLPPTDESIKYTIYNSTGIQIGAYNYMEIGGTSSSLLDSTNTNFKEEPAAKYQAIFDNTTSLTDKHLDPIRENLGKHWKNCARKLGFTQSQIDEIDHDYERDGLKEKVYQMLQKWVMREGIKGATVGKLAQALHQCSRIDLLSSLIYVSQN

Q: How did the EC50 turn out when `CCN(Cc1sc(C)nc1C)C(=O)C1CCN(c2ncc(F)c(-c3c(C)cnn3C)n2)CC1` [Compound 70, 1-(4-(1,4-dimethyl-1H-pyrazol-5-yl)-5-fluoropyrimidin-2-yl)-N-((2,4-dimethylthiazol-5-yl)methyl)-N-ethylpiperidine-4-carboxamide] was run?
A: Its EC50 is 1 to 10 µM.

Q: `Cc1csc(CN(C)C(=O)C2CCN(c3ncc(F)c(-c4c(C)cnn4C)n3)CC2)n1` [Compound 71, 1-(4-(1,4-dimethyl-1H-pyrazol-5-yl)-5-fluoropyrimidin-2-yl)-N-methyl-N-((4-methylthiazol-2-yl)methyl)piperidine-4-carboxamide] was tested. Which EC50 did it give?
A: Its EC50 is 0.0001 to 0.1 µM.

Q: Which EC50 does the source give for `CCN(Cc1nc(C)cs1)C(=O)C1CCN(c2ncc(F)c(-c3c(C)cnn3C)n2)CC1` [Compound 72, 1-(4-(1,4-dimethyl-1H-pyrazol-5-yl)-5-fluoropyrimidin-2-yl)-N-ethyl-N-((4-methylthiazol-2-yl)methyl)piperidine-4-carboxamide] here?
A: The EC50 was 0.0001 to 0.1 µM.

Q: Which EC50 does the source give for `[2H]C([2H])([2H])N(C(=O)C1CCN(c2nc(-c3c(C)cnn3C)ncc2F)CC1)C([2H])([2H])c1cc(F)cc(F)c1F` [Compound 73, 1-(2-(1,4-dimethyl-1H-pyrazol-5-yl)-5-fluoropyrimidin-4-yl)-N-(methyl-d3)-N-((2,3,5-trifluorophenyl)methyl-d2)piperidine-4-carboxamide] here?
A: The EC50 was 0.0001 to 0.1 µM.

Q: `[2H]C([2H])([2H])N(C(=O)C1CCN(c2ncc(F)c(-c3c(C)cnn3C)n2)CC1)C([2H])([2H])c1cc(F)cc(F)c1F` [Compound 74, 1-(4-(1,4-dimethyl-1H-pyrazol-5-yl)-5-fluoropyrimidin-2-yl)-N-(methyl-d3)-N-((2,3,5-trifluorophenyl)methyl-d2)piperidine-4-carboxamide] was tested. Which EC50 did it give?
A: Its EC50 is 0.0001 to 0.1 µM.

Q: Which EC50 does the source give for `[2H]C([2H])([2H])N(C(=O)C1CCN(c2ncc(F)c(-c3ncnn3C)n2)CC1)C([2H])([2H])c1cc(F)cc(F)c1F` [Compound 75, 1-(5-fluoro-4-(1-methyl-1H-1,2,4-triazol-5-yl)pyrimidin-2-yl)-N-(methyl-d3)-N-((2,3,5-trifluorophenyl)methyl-d2)piperidine-4-carboxamide] here?
A: Its EC50 is 0.0001 to 0.1 µM.

Q: `[2H]C([2H])([2H])N(C(=O)C1CCN(c2ncc(F)c(-n3nc(C)nc3C)n2)CC1)C([2H])([2H])c1cc(F)cc(F)c1F` [Compound 76, 1-(4-(3,5-dimethyl-1H-1,2,4-triazol-1-yl)-5-fluoropyrimidin-2-yl)-N-(methyl-d3)-N-((2,3,5-trifluorophenyl)methyl-d2)piperidine-4-carboxamide] was tested. Which EC50 did it give?
A: Its EC50 is 0.0001 to 0.1 µM.

Q: For `[2H]C([2H])([2H])N(Cc1nccs1)C(=O)C1CCN(c2ncc(F)c(-c3c(C)cnn3C)n2)CC1` [Compound 77, 1-(4-(1,4-dimethyl-1H-pyrazol-5-yl)-5-fluoropyrimidin-2-yl)-N-(methyl-d3)-N-(thiazol-2-ylmethyl)piperidine-4-carboxamide], which EC50 is on record?
A: The EC50 was 0.0001 to 0.1 µM.

Q: `[2H]C([2H])([2H])N(Cc1nc(C)cs1)C(=O)C1CCN(c2ncc(F)c(-c3c(C)cnn3C)n2)CC1` [Compound 78, 1-(4-(1,4-dimethyl-1H-pyrazol-5-yl)-5-fluoropyrimidin-2-yl)-N-(methyl-d3)-N-((4-methylthiazol-2-yl)methyl)piperidine-4-carboxamide] was tested. Which EC50 did it give?
A: Its EC50 is 0.0001 to 0.1 µM.

Q: `Cc1cnn(C)c1-c1nc(N2CCC(C(=O)N(C)Cc3cc(C)n(C)n3)CC2)ncc1F` [Compound 79, N-((1,5-dimethyl-1H-pyrazol-3-yl)methyl)-1-(4-(1,4-dimethyl-1H-pyrazol-5-yl)-5-fluoropyrimidin-2-yl)-N-methylpiperidine-4-carboxamide] was tested. Which EC50 did it give?
A: Its EC50 is 0.1 to 1 µM.

Q: With `CCN(Cc1cc(C)n(C)n1)C(=O)C1CCN(c2ncc(F)c(-c3c(C)cnn3C)n2)CC1` [Compound 80, N-((1,5-dimethyl-1H-pyrazol-3-yl)methyl)-1-(4-(1,4-dimethyl-1H-pyrazol-5-yl)-5-fluoropyrimidin-2-yl)-N-ethylpiperidine-4-carboxamide] as the molecule, how does the EC50 read?
A: Its EC50 is 0.1 to 1 µM.

Q: How did the EC50 turn out when `Cc1cnn(C)c1-c1nc(N2CCC(C(=O)N(C)Cc3ccn(C)n3)CC2)ncc1F` [Compound 81, 1-(4-(1,4-dimethyl-1H-pyrazol-5-yl)-5-fluoropyrimidin-2-yl)-N-methyl-N-((1-methyl-1H-pyrazol-3-yl)methyl)piperidine-4-carboxamide] was run?
A: The EC50 was 0.0001 to 0.1 µM.

Q: Which EC50 does the source give for `CCN(Cc1ccn(C)n1)C(=O)C1CCN(c2ncc(F)c(-c3c(C)cnn3C)n2)CC1` [Compound 82, 1-(4-(1,4-dimethyl-1H-pyrazol-5-yl)-5-fluoropyrimidin-2-yl)-N-ethyl-N-((1-methyl-1H-pyrazol-3-yl)methyl)piperidine-4-carboxamide] here?
A: The EC50 was 0.0001 to 0.1 µM.

Q: With `Cc1cnn(C)c1-c1nc(N2CCC(C(=O)N(C)Cc3cnn(C)c3)CC2)ncc1F` [Compound 83, 1-(4-(1,4-dimethyl-1H-pyrazol-5-yl)-5-fluoropyrimidin-2-yl)-N-methyl-N-((1-methyl-1H-pyrazol-4-yl)methyl)piperidine-4-carboxamide] as the molecule, how does the EC50 read?
A: Its EC50 is 0.1 to 1 µM.

Q: How did the EC50 turn out when `CCN(Cc1cnn(C)c1)C(=O)C1CCN(c2ncc(F)c(-c3c(C)cnn3C)n2)CC1` [Compound 84, 1-(4-(1,4-dimethyl-1H-pyrazol-5-yl)-5-fluoropyrimidin-2-yl)-N-ethyl-N-((1-methyl-1H-pyrazol-4-yl)methyl)piperidine-4-carboxamide] was run?
A: Its EC50 is 0.1 to 1 µM.

Q: How did the EC50 turn out when `Cc1cnn(C)c1-c1nc(N2CCC(C(=O)N(C)Cc3cc(F)cc(F)c3)CC2)ncc1F` [Compound 85, N-(3,5-difluorobenzyl)-1-(4-(1,4-dimethyl-1H-pyrazol-5-yl)-5-fluoropyrimidin-2-yl)-N-methylpiperidine-4-carboxamide] was run?
A: The EC50 was 0.0001 to 0.1 µM.

Q: Which EC50 does the source give for `Cc1cnn(C)c1-c1cc(N2CCC(C(=O)N(C)Cc3nccs3)CC2)c(F)cn1` [Compound 86, 1-(2-(1,4-dimethyl-1H-pyrazol-5-yl)-5-fluoropyridin-4-yl)-N-methyl-N-(thiazol-2-ylmethyl)piperidine-4-carboxamide] here?
A: The EC50 was 0.0001 to 0.1 µM.

Q: For `Cc1nnc(CN(C)C(=O)C2CCN(c3ncc(F)c(-c4c(C)cnn4C)n3)CC2)s1` [Compound 87, 1-(4-(1,4-dimethyl-1H-pyrazol-5-yl)-5-fluoropyrimidin-2-yl)-N-methyl-N-((5-methyl-1,3,4-thiadiazol-2-yl)methyl)piperidine-4-carboxamide], which EC50 is on record?
A: The EC50 was 0.1 to 1 µM.

Q: Which EC50 does the source give for `Cc1cnn(C)c1-c1cc(N2CCC(C(=O)N(C)Cc3cc(F)cc(F)c3)CC2)ncn1` [Compound 88, N-(3,5-difluorobenzyl)-1-(6-(1,4-dimethyl-1H-pyrazol-5-yl)pyrimidin-4-yl)-N-methylpiperidine-4-carboxamide] here?
A: Its EC50 is 0.0001 to 0.1 µM.

Q: With `CCN(Cc1cc(F)cc(F)c1)C(=O)C1CCN(c2cc(-c3c(C)cnn3C)ncn2)CC1` [Compound 89, N-(3,5-difluorobenzyl)-1-(6-(1,4-dimethyl-1H-pyrazol-5-yl)pyrimidin-4-yl)-N-ethylpiperidine-4-carboxamide] as the molecule, how does the EC50 read?
A: The EC50 was 0.1 to 1 µM.

Q: `Cc1cnn(C)c1-c1nc(N2CCC(C(=O)N(C)Cc3nc(C)c(C)s3)CC2)ncc1F` [Compound 90, 1-(4-(1,4-dimethyl-1H-pyrazol-5-yl)-5-fluoropyrimidin-2-yl)-N-((4,5-dimethylthiazol-2-yl)methyl)-N-methylpiperidine-4-carboxamide] was tested. Which EC50 did it give?
A: The EC50 was 0.0001 to 0.1 µM.

Q: With `Cc1ncc(CN(C)C(=O)C2CCN(c3ncc(F)c(-c4c(C)cnn4C)n3)CC2)s1` [Compound 91, 1-(4-(1,4-dimethyl-1H-pyrazol-5-yl)-5-fluoropyrimidin-2-yl)-N-methyl-N-((2-methylthiazol-5-yl)methyl)piperidine-4-carboxamide] as the molecule, how does the EC50 read?
A: Its EC50 is 0.0001 to 0.1 µM.

Q: `Cc1nc(CN(C)C(=O)C2CCN(c3ncc(F)c(-c4c(C)cnn4C)n3)CC2)c(C)s1` [Compound 92] was tested. Which EC50 did it give?
A: Its EC50 is 0.1 to 1 µM.

Q: `Cc1cnn(C)c1-c1nc(N2CCC(C(=O)N(C)Cc3cscn3)CC2)ncc1F` [Compound 93, 1-(4-(1,4-dimethyl-1H-pyrazol-5-yl)-5-fluoropyrimidin-2-yl)-N-methyl-N-(thiazol-4-ylmethyl) piperidine-4-carboxamide] was tested. Which EC50 did it give?
A: The EC50 was 0.0001 to 0.1 µM.

Q: With `CCN(Cc1cscn1)C(=O)C1CCN(c2ncc(F)c(-c3c(C)cnn3C)n2)CC1` [Compound 94, 1-(4-(1,4-dimethyl-1H-pyrazol-5-yl)-5-fluoropyrimidin-2-yl)-N-ethyl-N-(thiazol-4-ylmethyl) piperidine-4-carboxamide] as the molecule, how does the EC50 read?
A: Its EC50 is 0.0001 to 0.1 µM.

Q: `Cc1cnn(C)c1-c1nc(N2CCC(C(=O)N(C)Cc3nccs3)CC2)ncc1F` [Compound 95, 1-(4-(1,4-dimethyl-1H-pyrazol-5-yl)-5-fluoropyrimidin-2-yl)-N-methyl-N-(thiazol-2-ylmethyl)piperidine-4-carboxamide] was tested. Which EC50 did it give?
A: The EC50 was 0.0001 to 0.1 µM.

Q: With `CCN(Cc1nccs1)C(=O)C1CCN(c2ncc(F)c(-c3c(C)cnn3C)n2)CC1` [Compound 96, 1-(4-(1,4-dimethyl-1H-pyrazol-5-yl)-5-fluoropyrimidin-2-yl)-N-ethyl-N-(thiazol-2-ylmethyl)piperidine-4-carboxamide] as the molecule, how does the EC50 read?
A: The EC50 was 0.0001 to 0.1 µM.

Q: `[2H]C([2H])([2H])N(C(=O)C1CCN(c2ncc(F)c(-c3nnc(C)s3)n2)CC1)C([2H])([2H])c1cc(F)cc(F)c1F` [Compound 97, 1-(5-fluoro-4-(5-methyl-1,3,4-thiadiazol-2-yl)pyrimidin-2-yl)-N-(methyl-d3)-N-((2,3,5-trifluorophenyl)methyl-d2)piperidine-4-carboxamide] was tested. Which EC50 did it give?
A: Its EC50 is 0.0001 to 0.1 µM.
